Experimental data taken from patent US20170152226A1, “FUNCTIONALISED AND SUBSTITUTED INDOLES AS ANTI-CANCER AGENTS” (Novogen Ltd., priority 2014, published 2017).

How the values were obtained:
Type in all cases: cell-based
A549 = test: Anti-proliferative activity, cell-titre luminescent viability assay; details: Homo sapiens, A549, 72 h, 0.03, 0.3, 3 and 30 μM, linear regression of semi-log plots, read-out: IC50 Lung (NSLC) A549
In short: (§1)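 Cells attached for 24 h at 37° C, 5% CO2, then received compound (0.03, 0.3, 3, 30 μM, or 0.1–30 μM in six steps) for 72 h. Viability was read by cell-titre luminescence after 30 min and normalized to untreated or vehicle control. IC50 came from linear regression of semi-log plots, or EC50 from variable-slope sigmoidal nonlinear regression, depending on compound.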

CaCo2 = test: as above; details: Homo sapiens, Caco-2, 72 h, 0.03, 0.3, 3 and 30 μM, linear regression of semi-log plots, read-out: IC50 Colorectal CaCo2
In short: as §1

DU145 = test: as above; details: Homo sapiens, DU-145, 72 h, 0.03, 0.3, 3 and 30 μM, linear regression of semi-log plots, read-out: IC50 Prostate DU145
In short: as §1

MDA-MB-231 = test: as above; details: Homo sapiens, MDA-MB-231, 72 h, 0.03, 0.3, 3 and 30 μM, linear regression of semi-log plots, read-out: IC50 Breast MDA-MB-231
In short: as §1

PC3 = test: as above; details: Homo sapiens, PC-3, 72 h, 0.03, 0.3, 3 and 30 μM, linear regression of semi-log plots, read-out: IC50 Prostate PC3
In short: as §1

SK-Mel-28 = test: as above; details: Homo sapiens, SK-MEL-28; 72 hours; 0.03, 0.3, 3 and 30 μM; linear regression of semi-log plots; read-out: IC50 Melanoma SK-Mel-28
In short: as §1

SK-N-SH = test: as above; details: Homo sapiens, SK-N-SH, 72 h, 0.03, 0.3, 3 and 30 μM, linear regression of semi-log plots, read-out: IC50 Neuroblastoma SK-N-SH
In short: as §1

[1] = tested on: total actin cytoskeleton in SK-N-SH neuroblastoma cells; test: Microfilament disruption assay, phalloidin staining; details: 0-40 μM, 24 hours post treatment
Experimental: (§2) FIG. 1: Imaging and quantitation of actin filaments in SK-N-SH neuroblastoma cells treated with compound (A) 3504, (B) 3507 and (C) 3516. Cells were stained with 488-Atto-Phallodin and DAPI to visualize the actin filament bundles and the nucleus, respectively. Shown in the top panel is a representative grey scale immunofluorescent image from control (vehicle alone), 5 μM and 10 μM treated cells. […] The coloured lines indicate the detected actin filaments. Also shown is the quantitation of cell number, filament number/cell and filament number/cell area (μM^2). […]
(§3) The ability of compounds 3504, 3507 and 3516 to disrupt the total actin cytoskeleton (FIG. 1) and to specifically target Tpm3.1-containing actin filaments (FIG. 2) was assessed in vitro using the microfilament disruption assay.
(§4) Briefly, SK-N-SH neuroblastoma cells were seeded at 1800 cells/well in a 384 Perkin Elmer High Content Imaging “View” plate and left to plate down 24 hours prior to treatment. […] Images were then exported and changes in the organization and numbers of actin filaments within the cell were quantitated using a linear feature detection algorithm developed by the CSIRO (Vindin et al., 2014). […] It is these “ridge lines” that correspond to actin filament bundles and allow us to quantitate the number of filaments per cell.

[2] = tested on: Tpm3.1-containing actin filaments in SK-N-SH neuroblastoma cells; test: Microfilament disruption assay, γ9d staining; details: 0-40 μM, 24 hours post treatment
Experimental: as §2, with “FIG. 2:” for “FIG. 1:”, “with γ9d (sheep polycolonal, 1:100) followed by 488-conjugated secondary (1:1000)” for “with 488-Atto-Phallodin”, “the Tpm3.1 containing” for “the actin”
as §3, §4

## Cc1c(C)n(CCCN2CCN(C)CC2)c2ccc(Nc3cccc(C(=O)N4CCN(CCc5cccc(F)c5)CC4)c3)cc12 [Compound 3516, (3-((2,3-dimethyl-1-(3-(4-methylpiperazin-1-yl)propyl)-1H-indol-5-yl)amino)phenyl)(4-(3-fluorophenethyl)piperazin-1-yl)methanone]
A549
  IC50: 2200 nM
CaCo2
  IC50: 2100 nM
DU145
  IC50: 3000 nM
MDA-MB-231
  IC50: 1300 nM
PC3
  IC50: 3500 nM
SK-Mel-28
  IC50: 2600 nM
SK-N-SH
  IC50: 1400 nM
[1]
  disruption of the total actin cytoskeleton: in a dose-dependent manner
[2]
  disruption of Tpm3.1-containing actin filaments: in a dose-dependent manner
